Measured values: publication PMC5041959, “A high-content EMT screen identifies multiple receptor tyrosine kinase inhibitors with activity on TGFβ receptor” (Oncotarget, 2016)
Like-named read-outs stand apart in the source and are kept apart here.

Legend:
NMuMG cells [1] = experiment: High-content microscopy EMT screen in TGFβ-treated NMuMG cells (FA, SF, FN, cell count); type: cell-based, murine
Py2T cells = experiment: High-content microscopy EMT assay in TGFβ-treated Py2T breast cancer cells; type: cell-based, murine; details: Py2T
[2] = mice, single dose of 50 mg/kg; cited from earlier work
TGFBR1 = target: T1, TGFBR1 (Homo sapiens, UniProt P36897); experiment: Biochemical kinase profiling (33PanQinase radiometric assay)
T1 sequence (P36897 34-503): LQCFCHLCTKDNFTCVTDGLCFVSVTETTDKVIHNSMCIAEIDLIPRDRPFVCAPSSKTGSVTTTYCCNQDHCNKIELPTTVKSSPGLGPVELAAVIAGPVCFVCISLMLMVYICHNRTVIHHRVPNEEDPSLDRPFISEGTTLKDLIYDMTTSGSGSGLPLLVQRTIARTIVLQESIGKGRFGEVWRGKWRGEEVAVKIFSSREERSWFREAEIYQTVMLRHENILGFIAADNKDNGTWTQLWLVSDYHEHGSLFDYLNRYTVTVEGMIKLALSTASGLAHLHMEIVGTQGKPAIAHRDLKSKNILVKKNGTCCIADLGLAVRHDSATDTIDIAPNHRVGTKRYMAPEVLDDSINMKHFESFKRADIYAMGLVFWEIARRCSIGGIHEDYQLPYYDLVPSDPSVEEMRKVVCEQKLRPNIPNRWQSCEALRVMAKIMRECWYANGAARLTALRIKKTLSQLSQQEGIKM

TGFBR2 = TGFBR2 (Homo sapiens, UniProt P37173); experiment: as above
TGFBR2, sequence (P37173 23-567): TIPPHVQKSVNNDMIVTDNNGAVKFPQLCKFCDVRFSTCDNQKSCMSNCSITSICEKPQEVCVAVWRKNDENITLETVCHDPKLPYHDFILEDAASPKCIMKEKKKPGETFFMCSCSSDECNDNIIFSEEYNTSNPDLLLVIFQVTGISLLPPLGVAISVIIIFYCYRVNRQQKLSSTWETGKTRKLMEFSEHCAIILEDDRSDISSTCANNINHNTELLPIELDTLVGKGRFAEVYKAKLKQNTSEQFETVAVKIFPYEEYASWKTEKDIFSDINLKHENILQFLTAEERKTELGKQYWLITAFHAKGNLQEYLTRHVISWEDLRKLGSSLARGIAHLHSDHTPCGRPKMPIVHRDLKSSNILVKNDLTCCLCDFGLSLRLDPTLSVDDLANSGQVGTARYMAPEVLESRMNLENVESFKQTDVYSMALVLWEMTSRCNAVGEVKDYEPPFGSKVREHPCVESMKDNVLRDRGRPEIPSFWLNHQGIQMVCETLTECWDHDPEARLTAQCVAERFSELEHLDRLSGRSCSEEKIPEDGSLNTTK

[3] = cited from earlier work
[4] = cited from earlier work; remark: listed apart in the source
c-KIT = target: T2, c-KIT (Homo sapiens, UniProt P10721); experiment: Biochemical kinase profiling (33PanQinase radiometric assay); details: ATP at apparent Km
T2 construct: purchased ProQinase (Freiburg, Germany)

VEGFR1 = target: T3, VEGFR1 (Homo sapiens, UniProt P17948); experiment: as above; details: ATP at apparent Km
T3 construct: purchased ProQinase (Freiburg, Germany)

VEGFR3 = target: T4, VEGFR3 (Homo sapiens, UniProt P35916); experiment: as above; details: ATP at apparent Km
T4 construct: purchased ProQinase (Freiburg, Germany)

EGFR = EGFR (Homo sapiens, UniProt P00533); experiment: as above; details: read-out: EGFR IC50; ATP at apparent Km
EGFR, sequence (P00533 25-1210): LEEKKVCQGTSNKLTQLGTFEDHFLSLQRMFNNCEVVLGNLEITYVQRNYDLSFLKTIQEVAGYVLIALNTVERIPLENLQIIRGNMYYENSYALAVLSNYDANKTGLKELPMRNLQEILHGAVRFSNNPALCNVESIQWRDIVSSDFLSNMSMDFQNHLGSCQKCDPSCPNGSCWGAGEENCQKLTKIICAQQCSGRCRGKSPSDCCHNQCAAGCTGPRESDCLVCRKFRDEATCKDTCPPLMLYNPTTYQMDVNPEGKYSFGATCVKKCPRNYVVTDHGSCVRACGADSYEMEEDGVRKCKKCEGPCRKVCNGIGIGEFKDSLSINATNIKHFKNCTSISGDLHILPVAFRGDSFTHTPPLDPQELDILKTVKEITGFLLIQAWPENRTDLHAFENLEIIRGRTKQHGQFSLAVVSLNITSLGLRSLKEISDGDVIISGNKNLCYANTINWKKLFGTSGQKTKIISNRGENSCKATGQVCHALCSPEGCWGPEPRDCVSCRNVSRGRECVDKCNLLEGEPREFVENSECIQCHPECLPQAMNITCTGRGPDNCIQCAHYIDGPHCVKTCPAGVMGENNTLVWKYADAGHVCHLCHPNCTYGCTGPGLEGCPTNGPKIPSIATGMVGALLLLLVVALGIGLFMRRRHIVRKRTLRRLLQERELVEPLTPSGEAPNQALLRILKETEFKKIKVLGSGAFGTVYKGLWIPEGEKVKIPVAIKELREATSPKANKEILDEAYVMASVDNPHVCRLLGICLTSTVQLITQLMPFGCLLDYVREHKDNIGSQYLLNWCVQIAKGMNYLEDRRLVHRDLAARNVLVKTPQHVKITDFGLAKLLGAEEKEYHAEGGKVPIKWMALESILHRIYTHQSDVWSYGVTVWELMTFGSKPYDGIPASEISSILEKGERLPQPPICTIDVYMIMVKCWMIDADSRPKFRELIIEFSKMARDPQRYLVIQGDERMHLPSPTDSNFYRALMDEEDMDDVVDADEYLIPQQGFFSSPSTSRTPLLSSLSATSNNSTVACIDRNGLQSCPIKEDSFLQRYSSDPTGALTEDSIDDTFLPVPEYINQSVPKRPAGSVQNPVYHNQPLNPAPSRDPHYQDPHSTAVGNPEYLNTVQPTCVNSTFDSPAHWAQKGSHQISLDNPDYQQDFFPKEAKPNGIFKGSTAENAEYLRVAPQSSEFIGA

FGFR1 = FGFR1 (Homo sapiens, UniProt P11362); experiment: as above; details: read-out: FGFR1 IC50; ATP at apparent Km
FGFR1, sequence (P11362 22-822): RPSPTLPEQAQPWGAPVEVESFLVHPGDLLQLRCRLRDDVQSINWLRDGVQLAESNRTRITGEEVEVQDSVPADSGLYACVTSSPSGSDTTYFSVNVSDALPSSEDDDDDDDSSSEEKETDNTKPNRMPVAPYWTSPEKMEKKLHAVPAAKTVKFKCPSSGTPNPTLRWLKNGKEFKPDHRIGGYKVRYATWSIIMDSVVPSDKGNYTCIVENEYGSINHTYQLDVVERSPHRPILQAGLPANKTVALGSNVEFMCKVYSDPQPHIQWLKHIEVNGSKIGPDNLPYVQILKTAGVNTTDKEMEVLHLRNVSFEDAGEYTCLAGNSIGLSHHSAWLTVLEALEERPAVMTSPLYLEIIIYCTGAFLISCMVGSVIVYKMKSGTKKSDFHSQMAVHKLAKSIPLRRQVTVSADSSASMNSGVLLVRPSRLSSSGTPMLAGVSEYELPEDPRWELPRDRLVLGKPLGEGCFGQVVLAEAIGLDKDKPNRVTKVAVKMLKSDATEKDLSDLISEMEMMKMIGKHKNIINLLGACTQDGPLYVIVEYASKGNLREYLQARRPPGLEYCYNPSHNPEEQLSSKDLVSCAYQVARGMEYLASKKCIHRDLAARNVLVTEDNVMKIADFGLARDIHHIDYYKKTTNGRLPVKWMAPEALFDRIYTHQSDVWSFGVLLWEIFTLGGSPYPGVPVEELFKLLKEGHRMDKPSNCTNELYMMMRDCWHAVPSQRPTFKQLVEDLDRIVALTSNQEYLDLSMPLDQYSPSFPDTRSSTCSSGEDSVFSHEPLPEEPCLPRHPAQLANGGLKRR

FGFR2 = FGFR2 (Homo sapiens, UniProt P21802); experiment: as above; details: read-out: FGFR2 IC50; ATP at apparent Km
FGFR3 = FGFR3 (Homo sapiens, UniProt P22607); experiment: as above; details: read-out: FGFR3 IC50; ATP at apparent Km
FGFR3, sequence (P22607 23-806): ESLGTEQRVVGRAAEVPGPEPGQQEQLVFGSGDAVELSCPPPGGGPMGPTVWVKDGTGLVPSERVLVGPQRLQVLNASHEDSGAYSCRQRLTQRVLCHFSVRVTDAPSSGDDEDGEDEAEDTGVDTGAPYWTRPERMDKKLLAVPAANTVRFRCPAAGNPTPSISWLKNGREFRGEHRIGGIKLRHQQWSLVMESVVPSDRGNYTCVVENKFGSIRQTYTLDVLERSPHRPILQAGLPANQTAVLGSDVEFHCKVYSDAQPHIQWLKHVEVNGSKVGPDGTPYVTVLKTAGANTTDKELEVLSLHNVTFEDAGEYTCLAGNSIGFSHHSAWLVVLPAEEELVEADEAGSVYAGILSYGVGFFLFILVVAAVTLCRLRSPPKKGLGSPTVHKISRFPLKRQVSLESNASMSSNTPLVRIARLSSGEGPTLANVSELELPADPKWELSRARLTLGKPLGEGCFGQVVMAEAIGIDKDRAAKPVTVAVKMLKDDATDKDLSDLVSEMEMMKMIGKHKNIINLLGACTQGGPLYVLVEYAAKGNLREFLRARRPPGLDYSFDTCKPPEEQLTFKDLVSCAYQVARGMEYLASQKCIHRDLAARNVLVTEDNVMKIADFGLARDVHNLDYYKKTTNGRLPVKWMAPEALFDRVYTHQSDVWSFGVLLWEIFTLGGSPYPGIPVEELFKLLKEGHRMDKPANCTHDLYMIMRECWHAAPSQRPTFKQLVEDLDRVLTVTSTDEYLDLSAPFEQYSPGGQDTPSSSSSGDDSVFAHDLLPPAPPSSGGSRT

FGFR4 = FGFR4 (Homo sapiens, UniProt P22455); experiment: as above; details: read-out: FGFR4 IC50; ATP at apparent Km
PDGFRA = PDGFRA (Homo sapiens, UniProt P16234); experiment: as above; details: read-out: PDGFRA IC50; ATP at apparent Km
PDGFRA, sequence (P16234 24-1089): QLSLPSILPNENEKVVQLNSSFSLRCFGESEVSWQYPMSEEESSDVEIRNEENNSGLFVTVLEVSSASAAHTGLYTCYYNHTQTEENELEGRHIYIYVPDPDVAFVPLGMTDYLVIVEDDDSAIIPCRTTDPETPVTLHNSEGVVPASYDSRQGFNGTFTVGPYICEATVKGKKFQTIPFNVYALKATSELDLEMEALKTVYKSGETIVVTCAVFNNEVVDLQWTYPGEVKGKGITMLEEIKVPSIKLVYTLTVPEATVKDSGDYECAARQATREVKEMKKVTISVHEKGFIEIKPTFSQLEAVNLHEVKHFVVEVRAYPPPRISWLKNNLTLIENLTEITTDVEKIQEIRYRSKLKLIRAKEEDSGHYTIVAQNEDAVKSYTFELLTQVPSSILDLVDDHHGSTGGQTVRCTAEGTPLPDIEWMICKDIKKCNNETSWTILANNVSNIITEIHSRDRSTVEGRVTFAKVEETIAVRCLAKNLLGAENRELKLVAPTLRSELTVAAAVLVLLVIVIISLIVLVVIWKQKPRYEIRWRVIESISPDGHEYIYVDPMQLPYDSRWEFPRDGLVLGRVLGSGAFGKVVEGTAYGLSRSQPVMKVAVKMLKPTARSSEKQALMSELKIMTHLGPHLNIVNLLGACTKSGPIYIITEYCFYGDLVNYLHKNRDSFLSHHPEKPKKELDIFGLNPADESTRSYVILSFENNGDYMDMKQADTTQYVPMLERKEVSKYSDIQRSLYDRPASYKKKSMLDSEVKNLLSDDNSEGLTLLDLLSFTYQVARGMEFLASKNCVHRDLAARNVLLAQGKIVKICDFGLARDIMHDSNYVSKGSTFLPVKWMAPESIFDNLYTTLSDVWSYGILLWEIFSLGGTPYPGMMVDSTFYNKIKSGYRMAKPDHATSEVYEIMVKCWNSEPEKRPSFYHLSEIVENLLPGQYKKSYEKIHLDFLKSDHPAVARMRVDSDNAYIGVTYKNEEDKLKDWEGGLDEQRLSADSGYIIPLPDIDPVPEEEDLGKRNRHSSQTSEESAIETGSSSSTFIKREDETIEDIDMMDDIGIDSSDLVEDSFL

PDGFRB = PDGFRB (Homo sapiens, UniProt P09619); experiment: as above; details: read-out: PDGFRB IC50; ATP at apparent Km
SRC = SRC (Homo sapiens, UniProt P12931); experiment: as above; details: read-out: SRC IC50; ATP at apparent Km
SRC, sequence (P12931 whole entry): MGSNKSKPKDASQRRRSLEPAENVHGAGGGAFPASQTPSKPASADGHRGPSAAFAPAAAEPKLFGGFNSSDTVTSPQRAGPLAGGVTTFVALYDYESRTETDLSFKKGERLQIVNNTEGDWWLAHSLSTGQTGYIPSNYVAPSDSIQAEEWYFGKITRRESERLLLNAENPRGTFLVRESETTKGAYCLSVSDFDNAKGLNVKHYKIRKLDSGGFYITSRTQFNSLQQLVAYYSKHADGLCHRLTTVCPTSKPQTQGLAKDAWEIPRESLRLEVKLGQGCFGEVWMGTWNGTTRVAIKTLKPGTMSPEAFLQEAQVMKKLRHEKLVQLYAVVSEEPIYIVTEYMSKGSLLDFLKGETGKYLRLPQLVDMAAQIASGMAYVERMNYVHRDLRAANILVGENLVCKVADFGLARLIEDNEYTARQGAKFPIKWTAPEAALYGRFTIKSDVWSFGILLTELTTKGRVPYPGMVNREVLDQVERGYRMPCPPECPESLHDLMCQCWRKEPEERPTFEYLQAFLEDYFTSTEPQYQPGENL

VEGFR2 = target: T5, VEGFR2 (Homo sapiens, UniProt P35968); experiment: as above; details: ATP at apparent Km
T5 construct: purchased ProQinase (Freiburg, Germany)

NMuMG cells [5] = experiment: E-cadherin, ZO1 and vimentin immunofluorescence in TGFβ-treated NMuMG cells; type: cell-based, murine; details: four days TGFβ plus inhibitor
Description: NMuMG and Py2T cells were trypsinized, washed, seeded at 1000 cells/well, resuspended in 40 μl growth medium with a Multidrop-384 (Titertek) in 384-well microplates (Greiner, 781091), and grown overnight at 37°C, 5% CO2. The next day, 111 μl growth medium was added with the Multidrop-384 to 1 μl of the 2 mM library compounds of which 10 μl was transferred with a 384-well pipettor (VPrep, Agilent, US) to the cell assay plate and equilibrated for 10 min (final compound concentration 3 μM). For screenings at 300 nM or 30 nM, the compounds were diluted 1:10 or 1:100 in growth medium, respectively, before use. […]
Cells were imaged using the automated epifluorescence microscope ImageXpress Micro from Molecular Devices (Sunnyvale CA, USA) equipped with a plate-loading robot (CRS Catalyst, Thermo Scientific). […] The images were automatically analyzed by MetaXpress and segmented into sub-cellular structures based on morphological features such as object size and fluorescence distribution. Fluorescence distribution was a measure of the threshold intensity above local background and was adjusted for all parameters (nuclei, FA, SF and FN) by means of the respective positive and negative controls to compensate for inter-experimental variations between the different screening batches. […] Vimentin was quantified similar to SF and FN using the Angiogenesis module. […]

[6] = Mus musculus, 96 h; NMuMG, TGFβ1 2 ng/ml plus compound, 4 days; parameter decreased by 50%; read-out: FA IC50 (focal adhesion formation)
[7] = Mus musculus, 96 h; NMuMG, TGFβ1 2 ng/ml plus compound, 4 days; parameter decreased by 50%; read-out: FN IC50 (fibronectin patch formation)
[8] = Mus musculus, 96 h; NMuMG, TGFβ1 2 ng/ml plus compound, 4 days; parameter decreased by 50%; read-out: SF IC50 (stress fibers)
[9] = Mus musculus; NMuMG; cell count decreased by 50% compared to DMSO control; read-out: Tox IC50
[10] = Mus musculus; NMuMG; mean of IC50 values obtained for FA, SF, FN; read-out: EMT (FA/SF/FN) combined IC50
[11] = Mus musculus; read-out: CCI IC50 (cell count increase)
[12] = Mus musculus; read-out: Emax (maximal effect on cell count)
[13] = NMuMG, TGFβ1 2 ng/ml plus compound, 4 days; parameter decreased by 50%; read-out: FA IC50 (focal adhesion formation)
[14] = NMuMG, TGFβ1 2 ng/ml plus compound, 4 days; parameter decreased by 50%; read-out: FN IC50 (fibronectin patch formation)
[15] = NMuMG, TGFβ1 2 ng/ml plus compound, 4 days; parameter decreased by 50%; read-out: SF IC50 (stress fibers)
[16] = NMuMG; cell count decreased by 50% compared to DMSO control; read-out: Tox IC50
[17] = NMuMG; cell count increased by 50% compared to 100% with 10 μM SB-431542; read-out: CCI IC50 (cell count increase)
[18] = NMuMG; compared to reference 10 μM SB-431542 = 100%
[19] = NMuMG; mean of IC50 values obtained for FA, SF, FN; read-out: EMT (FA/SF/FN) combined IC50
[20] = read-out: TGFBR2 IC50, ATP at apparent Km

| IC50 (NMuMG cells [1]; [6]) [nM] | IC50 (NMuMG cells [1]; [7]) [nM] | IC50 (NMuMG cells [1]; [8]) [nM] | IC50 (NMuMG cells [1]; [10]) [nM] | IC50 (NMuMG cells [1]; [11]) [nM] | Structure (SMILES) | IC50 (NMuMG cells [1]; [9]) [nM] | Emax (NMuMG cells [1]; [12]) [%] | plasma protein binding [3] | IC50 (NMuMG cells [1]; [13]) [nM] | IC50 (NMuMG cells [1]; [14]) [nM] | IC50 (NMuMG cells [1]; [15]) [nM] | IC50 (NMuMG cells [1]; [16]) [nM] | IC50 (NMuMG cells [1]; [17]) [nM] | Emax (maximal effect on cell count) (NMuMG cells [1]; [18]) [%] | IC50 (NMuMG cells [1]; [19]) [nM] | IC50 (c-KIT) [µM] | IC50 (VEGFR1) [nM] | IC50 (VEGFR3) [nM] | IC50 (EGFR) [µM] | IC50 (FGFR1) [µM] | also measured |
| --- | --- | --- | --- | --- | --- | --- | --- | --- | --- | --- | --- | --- | --- | --- | --- | --- | --- | --- | --- | --- | --- |
| 2630 | 1180 | 5060 | 2960 | 1110 | COC(=O)c1ccc2c(c1)NC(=O)/C2=C(\Nc1ccc(N(C)C(=O)CN2CCN(C)CC2)cc1)c1ccccc1 [Nintedanib] | 23000 | 26.2 | – | – | – | – | – | – | – | – | – | – | – | – | – | IC50 (Py2T cells; Mus musculus, cell count decreased by 50% compared to DMSO control, read-out: Tox IC50): 502 nM; FA IC50 (focal adhesions) (Py2T cells; TGFβ plus compound, 4 days): n.m.; FN IC50 (fibronectin patches) (Py2T cells; TGFβ plus compound, 4 days): n.m.; SF IC50 (stress fibers) (Py2T cells; TGFβ plus compound, 4 days): n.m.; Emax (maximal effect on cell count) (Py2T cells; compared to reference 10 μM SB-431542 = 100%): n.m.; Cmax [2]: ~1000 nM; IC50 (TGFBR1): 505 nM; IC50 (TGFBR2): > 10 µM |
| 8030 | 3950 | 7300 | 6430 | 1080 | Cc1ccc(Nc2nccc(N(C)c3ccc4c(C)n(C)nc4c3)n2)cc1S(N)(=O)=O [Pazopanib] | 15700 | 17.6 | above 99.9% | – | – | – | – | – | – | – | – | – | – | – | – | IC50 (NMuMG cells [1]; Mus musculus, combined FA/SF/FN; read-out: IC50 for blocking EMT in NMuMG cells): 6400 nM; steady state blood levels required to be active in patients [4]: at least 40 μM |
| – | – | – | – | – | Cc1cccc(-c2[nH]ncc2-c2ccc3ncccc3n2)n1 [RepSox] | – | – | – | 47 | 44 | 55 | > 3000 | 88 | 100 | 48.7 | 5.24 | 1080 | 1640 | > 10 | > 10 | IC50 (FGFR2): 4.76 µM; IC50 (FGFR3): > 10 µM; IC50 (FGFR4): > 10 µM; IC50 (PDGFRA): > 10 µM; IC50 (PDGFRB): 4.37 µM; IC50 (SRC): 6.11 µM; IC50 (TGFBR2; [20]): 3.07 µM |
| – | – | – | – | – | Cc1cccc(-c2[nH]c(C(C)(C)C)nc2-c2ccc3nccnc3c2)n1 [SB-525334] | – | – | – | 276 | 261 | 243 | > 3000 | 380 | 100 | 260 | > 10 | < 0.3 | > 10000 | > 10 | > 10 | IC50 (VEGFR2): 3.52 µM; IC50 (FGFR2): > 10 µM; IC50 (FGFR3): > 10 µM; IC50 (FGFR4): > 10 µM; IC50 (PDGFRA): > 10 µM; IC50 (PDGFRB): > 10 µM; IC50 (SRC): 5.62 µM; IC50 (TGFBR2; [20]): > 10 µM |
| – | – | – | – | – | CNC(=O)c1cc(Oc2ccc(NC(=O)Nc3ccc(Cl)c(C(F)(F)F)c3)cc2)ccn1 [Sorafenib] | – | – | 99.7% | – | – | – | – | – | – | – | – | – | – | – | – | IC50 (NMuMG cells [1]; Mus musculus, 96 h, read-out: FA IC50 (focal adhesion formation)): 2090 nM; IC50 (NMuMG cells [1]; Mus musculus, 96 h, read-out: FN IC50 (fibronectin patch formation)): 1350 nM; IC50 (NMuMG cells [1]; Mus musculus, 96 h, read-out: SF IC50 (stress fibers)): 3930 nM; IC50 (NMuMG cells [1]; Mus musculus, read-out: CCI IC50 (cell count increase)): 103 nM; IC50 (NMuMG cells [1]; Mus musculus, read-out: EMT (FA/SF/FN) combined IC50): 2460 nM; Emax (NMuMG cells [1]; Mus musculus, read-out: Emax (maximal effect on cell count)): 17.5%; IC50 (NMuMG cells [1]; Mus musculus, read-out: Tox IC50): 12600 nM; effect on TGFβ-induced loss of E-cadherin and ZO1 from junctions and vimentin filament formation (NMuMG cells [5]): only marginally stabilized |
